Results on 25 compounds are retold here after patent publication US10576062B2, “Carbamoyloxymethyl triazole cyclohexyl acids as LPA antagonists” (Bristol-Myers Squibb Company, priority 2016, dated 2020).

SMILES strings stand for the structures.

The IC50 is the midpoint of a concentration-inhibition curve.

The target in the first experiment is T1, human LPA1 (Homo sapiens, UniProt Q92633).
T1 construct: expressed in transfected cells; host or cells: Chinese hamster ovary (CHO) cells
T1 sequence (Q92633 whole entry): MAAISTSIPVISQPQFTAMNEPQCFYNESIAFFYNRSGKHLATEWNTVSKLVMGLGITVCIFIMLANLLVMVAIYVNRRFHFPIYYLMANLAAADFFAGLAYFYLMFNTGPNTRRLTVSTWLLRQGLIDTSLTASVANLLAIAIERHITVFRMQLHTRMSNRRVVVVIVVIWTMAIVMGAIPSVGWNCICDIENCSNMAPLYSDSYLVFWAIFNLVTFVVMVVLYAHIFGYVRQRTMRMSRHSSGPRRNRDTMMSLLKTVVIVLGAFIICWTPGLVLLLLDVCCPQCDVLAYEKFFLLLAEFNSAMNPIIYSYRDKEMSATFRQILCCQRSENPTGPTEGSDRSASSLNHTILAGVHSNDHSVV
Kind of experiment: LPA1 functional antagonist assay (LPA-induced calcium flux). Format: cell-based. The note with it: human LPA1; read-out: hLPA1 IC50. A digest of the protocol: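 CHO cells overexpressing human LPA1, loaded with calcium dye 30 min at 37° C, were preincubated 20 min at room temperature with compound (0.08 nM–5 μM, 0.5% DMSO) in HBSS/20 mM HEPES/0.1% fatty acid-free BSA.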
In general terms: Calcium assays in cells follow changes in intracellular calcium, usually with a dye or a luminescent sensor.
Consider `Cc1nc(-c2nnn(C)c2COC(=O)N2CC3(CCCC3)C2)ccc1O[C@H]1CCC[C@H](C(=O)O)C1` [Example 159, (1S,3S)-3-((6-(5-(((2-azaspiro[3.4]octane-2-carbonyl)oxy)methyl)-1-methyl-1H-1,2,3-triazol-4-yl)-2-methylpyridin-3-yl)oxy)cyclohexane-1-carboxylic acid], for which the IC50 amounted to 162 nM.
The same measure, in the same setting: for `Cc1nc(-c2nnn(C)c2COC(=O)N(C)C2CC(C)(C)C2)ccc1O[C@H]1CCC[C@@H](C(=O)O)C1` [Example 160, (1R,3S)-3-((6-(5-((((3,3-dimethylcyclobutyl)(methyl)carbamoyl)oxy)methyl)-1-methyl-1H-1,2,3-triazol-4-yl)-2-methylpyridin-3-yl)oxy)cyclohexane-1-carboxylic acid] the value was 61 nM; for `Cc1nc(-c2nnn(C)c2COC(=O)N(C)CCC2CC2)ccc1O[C@H]1CCC[C@H](C(=O)O)C1` [Example 162, (1S,3S)-3-((6-(5-((((2-cyclopropylethyl)(methyl)carbamoyl)oxy)methyl)-1-methyl-1H-1,2,3-triazol-4-yl)-2-methylpyridin-3-yl)oxy)cyclohexane-1-carboxylic acid], 34 nM.
On the same count and under the same terms, the same measure for `Cc1nc(-c2nnn(C)c2COC(=O)N2C3CCC2CC3)ccc1O[C@H]1CCC[C@H](C(=O)O)C1` [Example 167, (1S,3S)-3-((6-(5-(((-7-azabicyclo[2.2.1]heptane-7-carbonyl)oxy)methyl)-1-methyl-1H-1,2,3-triazol-4-yl)-2-methylpyridin-3-yl)oxy)cyclohexane-1-carboxylic acid]: 317 nM; for `Cc1nc(-c2nnn(C)c2COC(=O)N(C)C2CC(C)(C)C2)ccc1O[C@H]1CCC[C@H](C(=O)O)C1` [Example 168, (1S,3S)-3-((6-(5-((((3,3-dimethyl-cyclobutyl)(methyl)carbamoyl)oxy)methyl)-1-methyl-1H-1,2,3-triazol-4-yl)-2-methylpyridin-3-yl)oxy)cyclohexane-1-carboxylic acid]: 29 nM.
As to `Cc1nc(-c2nnn(C)c2COC(=O)N(C)C(C)(C)C)ccc1O[C@H]1CCC[C@H](C(=O)O)C1` [Example 170, (1S,3S)-3-((6-(5-(((tert-butyl(methyl)carbamoyl)oxy)methyl)-1-methyl-1H-1,2,3-triazol-4-yl)-2-methylpyridin-3-yl)oxy)cyclohexane-1-carboxylic acid], the IC50 stood at 183 nM.
For the compound `Cc1nc(-c2nnn(C)c2COC(=O)N2CCC3(CC2)CC3)ccc1O[C@H]1CCC[C@H](C(=O)O)C1` [Example 171, (1S,3S)-3-((6-(5-(((6-azaspiro[2.5]octane-6-carbonyl)oxy)methyl)-1-methyl-1H-1,2,3-triazol-4-yl)-2-methylpyridin-3-yl)oxy)cyclohexane-1-carboxylic acid], the IC50 is 162 nM.
Still for that read-out and setting: for `CC(C)=CCN(C)C(=O)OCc1c(-c2ccc(O[C@H]3CCC[C@@H](C(=O)O)C3)c(C)n2)nnn1C` [Example 172, (1R,3S)-3-((2-methyl-6-(1-methyl-5-(((methyl(3-methylbut-2-en-1-yl)carbamoyl)oxy)methyl)-1H-1,2,3-triazol-4-yl)pyridin-3-yl)oxy)cyclohexane-1-carboxylic acid] the value was 312 nM; for `CCCN(C)C(=O)OCc1c(-c2ccc(O[C@H]3CCC[C@H](C(=O)O)C3)cn2)nnn1C` [Example 173, (1S,3S)-3-((6-(1-methyl-5-(((methyl(propyl)carbamoyl)oxy)methyl)-1H-1,2,3-triazol-4-yl)pyridin-3-yl)oxy)cyclohexane-1-carboxylic acid], 131 nM.
The same measure, in the same setting: for `CN(C(=O)OCc1c(-c2ccc(O[C@H]3CCC[C@H](C(=O)O)C3)cn2)nnn1C)C1CCC1` [Example 174, (1S,3S)-3-((6-(5-(((cyclobutyl(methyl)carbamoyl)oxy)methyl)-1-methyl-1H-1,2,3-triazol-4-yl)pyridin-3-yl)oxy)cyclohexane-1-carboxylic acid] the value was 58 nM; for `Cn1nnc(-c2ccc(O[C@H]3CCC[C@H](C(=O)O)C3)cn2)c1COC(=O)N1CCC2(CCC2)C1` [Example 175, (1S,3S)-3-((6-(5-(((6-azaspiro[3.4]octane-6-carbonyl)oxy)methyl)-1-methyl-1H-1,2,3-triazol-4-yl)pyridin-3-yl)oxy)cyclohexane-1-carboxylic acid], 703 nM.
Take `Cn1nnc(-c2ccc(O[C@H]3CCC[C@H](C(=O)O)C3)cn2)c1COC(=O)N1CC2(CCC2)C1` [Example 176, (1S,3S)-3-((6-(5-(((2-azaspiro[3.3]heptane-2-carbonyl)oxy)methyl)-1-methyl-1H-1,2,3-triazol-4-yl)pyridin-3-yl)oxy)cyclohexane-1-carboxylic acid]: the IC50 was determined as 400 nM.
Still for that read-out and setting: the same measure for `CC(C)=CCN(C)C(=O)OCc1c(-c2ccc(O[C@H]3CCC[C@H](C(=O)O)C3)c(C)n2)nnn1C` [Example 177, (1S,3S)-3-((2-methyl-6-(1-methyl-5-(((methyl(3-methylbut-2-en-1-yl)carbamoyl)oxy)methyl)-1H-1,2,3-triazol-4-yl)pyridin-3-yl)oxy)cyclohexane-1-carboxylic acid]: 21 nM.
The same measure, in the same setting: the same measure for `Cc1nc(-c2nnn(C)c2COC(=O)N(C)C(C)(C)CF)ccc1O[C@H]1CCC[C@H](C(=O)O)C1` [Example 178, (1S,3S)-3-((6-(5-((((1-fluoro-2-methylpropan-2-yl)(methyl)carbamoyl)oxy)methyl)-1-methyl-1H-1,2,3-triazol-4-yl)-2-methyl-pyridin-3-yl)oxy)cyclohexane-1-carboxylic acid]: 156 nM; for `Cc1nc(-c2nnn(C)c2COC(=O)N(C)C2CC3(CC3)C2)ccc1O[C@H]1CCC[C@H](C(=O)O)C1` [Example 179, (1S,3S)-3-((2-methyl-6-(1-methyl-5-(((methyl(spiro[2.3]hexan-5-yl)carbamoyl)oxy)methyl)-1H-1,2,3-triazol-4-yl)pyridin-3-yl)oxy)cyclohexane-1-carboxylic acid]: 14 nM.
On the same count and under the same terms, for `CN(C(=O)OCc1c(-c2ccc(O[C@H]3CCC[C@H](C(=O)O)C3)cn2)nnn1C)C1CC2(CCC2)C1` [Example 180, (1S,3S)-3-((6-(1-methyl-5-(((methyl(spiro[3.3]heptan-2-yl)carbamoyl)oxy)methyl)-1H-1,2,3-triazol-4-yl)pyridin-3-yl)oxy)cyclohexane-1-carboxylic acid] the value was 62 nM; for `CN(C(=O)OCc1c(-c2ccc(O[C@H]3CCC[C@H](C(=O)O)C3)cn2)nnn1C)C1CC(C)(C)C1` [Example 181, (1S,3S)-3-((6-(5-((((3,3-dimethylcyclobutyl)(methyl)carbamoyl)oxy)methyl)-1-methyl-1H-1,2,3-triazol-4-yl)pyridin-3-yl)oxy)cyclohexane-1-carboxylic acid], 101 nM.
As for `CN(C(=O)OCc1c(-c2ccc(O[C@H]3CCC[C@H](C(=O)O)C3)cn2)nnn1C)C1CC2(CC2)C1` [Example 183, (1S,3S)-3-((6-(1-methyl-5-(((methyl(spiro[2.3]hexan-5-yl)carbamoyl)oxy)methyl)-1H-1,2,3-triazol-4-yl)pyridin-3-yl)oxy)cyclohexane-1-carboxylic acid], the half-maximal inhibitory concentration (IC50) came to 20 nM.
On the same count and under the same terms, for `Cc1nc(-c2nnn(C)c2COC(=O)N(C)CCC(C)(C)F)ccc1O[C@H]1CCC[C@H](C(=O)O)C1` [Example 187, (1S,3S)-3-((6-(5-((((3-fluoro-3-methylbutyl)(methyl)carbamoyl)oxy)methyl)-1-methyl-1H-1,2,3-triazol-4-yl)-2-methylpyridin-3-yl)oxy)cyclohexane-1-carboxylic acid] the value was 50 nM; for `CN(CCC(C)(C)F)C(=O)OCc1c(-c2ccc(O[C@H]3CCC[C@H](C(=O)O)C3)cn2)nnn1C` [Example 188, (1S,3S)-3-((6-(5-((((3-fluoro-3-methylbutyl)(methyl)carbamoyl)oxy)methyl)-1-methyl-1H-1,2,3-triazol-4-yl)pyridin-3-yl)oxy)cyclohexane-1-carboxylic acid], 32 nM; for `Cc1nc(-c2nnn(C)c2COC(=O)N(C)CC2(F)CCC2)ccc1O[C@H]1CCC[C@H](C(=O)O)C1` [Example 189, (1S,3S)-3-((6-(5-(((((1-fluorocyclobutyl)methyl)(methyl)carbamoyl)oxy)methyl)-1-methyl-1H-1,2,3-triazol-4-yl)-2-methylpyridin-3-yl)oxy)cyclohexane-1-carboxylic acid], 120 nM.
On the same count and under the same terms, the same measure for `Cc1nc(-c2nnn(C)c2COC(=O)N(C)CCCF)ccc1O[C@H]1CCC[C@H](C(=O)O)C1` [Example 190, (1S,3S)-3-((6-(5-((((3-fluoropropyl)(methyl)carbamoyl)oxy)methyl)-1-methyl-1H-1,2,3-triazol-4-yl)-2-methylpyridin-3-yl)oxy)cyclohexane-1-carboxylic acid]: 81 nM.

Staying with this experiment, now noted: read-out: hLPA1 IC50.
Regarding `Cc1nc(-c2nnn(C)c2COC(=O)N2CCC3CCCC32)ccc1O[C@H]1CCC[C@H](C(=O)O)C1` (stereo partly drawn) [Example 149, (1S,3S)-3-((2-methyl-6-(1-methyl-5-(((octahydrocyclopenta[b]pyrrole-1-carbonyl)oxy)methyl)-1H-1,2,3-triazol-4-yl)pyridin-3-yl)oxy)cyclohexane-1-carboxylic acid], the IC50 amounted to 180 nM.
Consider `Cc1nc(-c2nnn(C)c2COC(=O)N2CC(C)(C)C2)ccc1O[C@H]1CCC[C@H](C(=O)O)C1` [Example 155, (1S,3S)-3-((6-(5-(((3,3-dimethylazetidine-1-carbonyl)oxy)methyl)-1-methyl-1H-1,2,3-triazol-4-yl)-2-methylpyridin-3-yl)oxy)cyclohexane-1-carboxylic acid], for which the IC50 worked out at 175 nM.
With `Cc1nc(-c2nnn(C)c2COC(=O)N2CC(C)C2)ccc1O[C@H]1CCC[C@H](C(=O)O)C1` [Example 156, (1S,3S)-3-((2-methyl-6-(1-methyl-5-(((3-methylazetidine-1-carbonyl)oxy)methyl)-1H-1,2,3-triazol-4-yl)pyridin-3-yl)oxy)cyclohexane-1-carboxylic acid], the IC50 came out at 231 nM.
